Test system: Chikungunya Virus (CHIKV) strain LR2006-OPY1 with GFP modification (CHIK 5'LR)
Test: Inhibition of Chikungunya virus (CHIKV) production in infected HEK293T cell line (GFP fluorescence)
Assay type: cell-based
Conditions: HEK-293T, infected HEK293T cells; for inhibition at 1 µM: compounds at 1 μM, MOI 0.1, 22 h, values above 100 lowered to 100, read-out: % CHIKV Inhibition Mean (n = 2); for IC50: second round of experiments
Experimental: The ability of the compounds to inhibit viral replication was assessed with an experiment in which infected cells were treated by compounds of formula (I) at 1 μM. As a positive control for inhibition of Chikungunya, Ribavirin was used. Toxicity of the compounds was assessed in parallel.
Human embryonic kidney cells 293T (HEK293T, CRL-11268) were maintained in Dulbecco's modified Eagle's Medium (DMEM, 31966-021, Thermo Fisher Scientific) supplemented with 10% of fetal bovine serum (FBS), penicillin and streptomycin. After removal of the medium, cells were washed with a Ca^2+- and Mg^2+-free salt solution to remove all traces of serum. After aspiration of wash solution, cells were dissociated with 0.25% Trypsin-EDTA solution and incubated 30 s at least in 37° ° C. incubator. Concentration of cell suspension was determined by an automatic cell counter (EVE, NanoEntek) and, if needed, adjusted to 0.33×10^6 cells/mL with DMEM medium supplemented with 10% FBS.
100 μL of the cell suspension were dispatched in a ViewPlate-96 Black (6005182, PerkinElmer) and in a transparent 96-well cell culture plate (655180, Greiner bio-one). After an incubation for 24 h at 37° C. under 5% of CO2, compounds were added at the proper concentration.
An intermediate dilution was prepared with DMSO (D8418, Sigma) at 2 mM in a 96-well V-bottom microplate from the stock solution:
Mix 1 μL of the 50 mM stock library in 25 μL of DMSO.
Mix 2 μL of the 25 mM stock library in 25 μL of DMSO.
An intermediate dilution was prepared with DMSO (D8418, Sigma) at 25 mM in a 96-well V-bottom microplate from the stock solution:
Mix 2 μL of the 50 mM stock library in 2 μL of DMSO.
Serial dilutions were performed in 2 μL of DMSO 13 times to reach 0.0015 mM as follows in table III:
For both screen and determination of IC50 1 μL of each solution was added in a 1 mL Masterblock 96 wells (Greiner bio-one, 780261) containing 1 mL of DMEM medium. As a positive control, 5 μL of a 80 mM Ribavirin solution (R9644, Sigma) is added to 1 mL of DMEM. On the other hand, DMSO is used as a negative control.
[…]. Vector Borne Zoonotic Dis. 2006; 6(4)). This modified virus was used to infect cells at MOI 0.1. […].
Medium was removed after 22 h at 37° ° C. under 5% of CO2 and cells were washed as described above. 60 μL of RIPA buffer (50 mM Tris-HCl pH8, 100 mM NaCl, 1 mM MgCl2, 1% Triton X-100) was added to cells and incubated for at least 20 min before reading fluorescence signal. Pierce 660 nm Protein Assay Reagent (22660, Thermo scientific) was used to normalize fluorescence signal by protein quantity.
A first round of experiments has been performed wherein the results are expressed as inhibition percentage, which is calculated as follows, through the following steps:
1. Fluorescence intensity (FI) 509 nm/Absorbance 660 nm (A660)=A
This ratio allows considering the infection (GFP virus) to the protein amount.
2. A′=A—background noise of non-infected plate,
3. B=Fluorescence intensity (FI)/Absorbance 660 nm (A660) of infected but non treated plates,
4. C=A′/B which is then converted as the percentage of infection after treatment, compared to non-treated sample, and subsequently as the […]. For instance, a value of 100 in Table IV here below means that, after treatment, the signal attributed to GFP fluorescence is abolished, which is correlated to the absence of infection.
This value corresponds to the inhibition's percentage.
The following Table IV encompasses said C′ value for some compounds as calculated above with a mean of 2 experiments, and the corresponding standard deviation.
Some values were originally above 100. In these cases, the value has been lowered to 100. This means that some molecules also have an impact on the viability of the cells. In other words, the A value may be lower than the background noise.
Moreover, for each measure, the test was performed with Ribavirin as control. The value of the inhibition percentage was checked, giving 100%.

Row | SMILES | inhibition at 1 µM [%] | IC50 [nM]
1 | Cc1c(Nc2ccc3cccc(Cl)c3n2)ccc(OC(C)C)c1C [Compound 21, 8-chloro-N-(4-isopropoxy-2,3-dimethylphenyl)quinolin-2-amine] | 100 | 1 to 200
2 | CCc1cc(OC(F)(F)F)ccc1Nc1ccc2ccccc2n1 [Compound 7, N-(2-ethyl-4-(trifluoromethoxy)phenyl)quinolin-2-amine] | 99 | 
3 | Cc1ccc(Oc2ccc(Nc3ccc4cccc(Cl)c4n3)cc2)cc1 [Compound 31, 8-chloro-N-(4-(p-tolyloxy)phenyl)quinolin-2-amine] | 93 | 
4 | CCc1cc(OC(F)(F)F)ccc1Nc1ccc2cccc(Cl)c2n1 [Compound 2, 8-chloro-N-(2-ethyl-4-(trifluoromethoxy)phenyl)quinolin-2-amine] | 100 | 1 to 200
5 | FC(F)(F)Oc1ccc(Nc2ccc3ccccc3n2)c(C2CC2)c1 [Compound 8, N-(2-cyclopropyl-4-(trifluoromethoxy)phenyl)quinolin-2-amine] | 100 | 
6 | Fc1ccccc1Oc1ccc(Nc2ccc3ccccc3n2)cc1 [Compound 29, N-(4-(2-fluorophenoxy)phenyl)quinolin-2-amine] | 97 | 
7 | Cc1cc(OCCOC(F)(F)F)ccc1Nc1ccc2cccc(Cl)c2n1 [Compound 14, 8-chloro-N-(2-methyl-4-(2-(trifluoromethoxy)ethoxy)phenyl)quinolin-2-amine] | 91 | 
8 | CCc1cc(OC2CCC2)ccc1Nc1ccc2cccc(Cl)c2n1 [Compound 41, 8-chloro-N-(4-cyclobutoxy-2-ethylphenyl)quinolin-2-amine] |  | 1 to 200
9 | COc1ccc(Oc2ccc(Nc3ccc4ccccc4n3)c(C)c2)c(F)c1 [Compound 45, N-(4-(2-fluoro-4-methoxyphenoxy)-2-methylphenyl)quinolin-2-amine] |  | 1 to 200
10 | Cc1cc(OCc2ccccn2)ccc1Nc1ccc2cccc(Cl)c2n1 [Compound 23, 8-chloro-N-(2-methyl-4-(pyridin-2-ylmethoxy)phenyl)quinolin-2-amine] | 82 | 
11 | Fc1ccccc1Oc1ccc(Nc2ccc3cccc(Cl)c3n2)cc1 [Compound 32, 8-chloro-N-(4-(2-fluorophenoxy)phenyl)quinolin-2-amine] | 90 | 
12 | CC(C)Cc1cc(OC(F)(F)F)ccc1Nc1ccc2cccc(Cl)c2n1 [Compound 3, 8-chloro-N-(2-isobutyl-4-(trifluoromethoxy)phenyl)quinolin-2-amine] | 100 | 
13 | Cc1cc(OC2CCCCC2)ccc1Nc1ccc2cccc(Cl)c2n1 [Compound 17, 8-chloro-N-(4-(cyclohexyloxy)-2-methylphenyl)quinolin-2-amine] | 100 | 1 to 200
14 | FC(F)(F)Oc1ccc(Nc2ccc3cccc(Cl)c3n2)c(C2CC2)c1 [Compound 4, 8-chloro-N-(2-cyclopropyl-4-(trifluoromethoxy)phenyl)quinolin-2-amine] | 100 | 1 to 200

— patent US12084422B2, “Phenyl-n-quinoline derivatives for treating a RNA virus infection” (ABIVAX, priority 2018, dated 2024)
